Experimental data as given in US8901175B2 (priority 2008, dated 2014).
Structures can show the parent of a compound that is named as a salt. Residues, ends and D or L forms follow the SMILES beside them. *: point of attachment. Cbz = O=C(OCc1ccccc1)*; CH2F = FC*

Assays:
[1] = system: human lymphoblastic leukaemia T-cell line CEM; experiment: Induction of apoptosis in CEM cells, flow cytometry (hypodiploid DNA); format: cell-based; conditions: 30, 20, 15, 10 μM methadone, 24 h and 48 h
[2] = system: human myeloid leukaemia cell line HL-60; experiment: Induction of apoptosis in HL-60 cells, flow cytometry (hypodiploid DNA); format: cell-based; conditions: 30, 20, 15, 10 μM methadone, 24 h and 48 h
[3] = system: doxorubicin-resistant CEM leukaemia cells (CEM^DoxoR); experiment: Induction of apoptosis in doxorubicin-resistant CEM cells; format: cell-based, human; conditions: 30, 20, 15 μM methadone, 24 h and 48 h
[4] = system: CD95-resistant leukaemia cells CEM^CD95R; experiment: Induction of apoptosis in CD95-resistant CEM cells; format: cell-based, human; conditions: 30, 20, 15 μM methadone, 24 h and 48 h
HL-60 leukaemia cells = experiment: Western blot analysis in HL-60 cells; format: cell-based, human; conditions: 20, 15 μM methadone, 24 h and 48 h
CEM leukaemia cells = experiment: Western blot analysis in CEM cells; format: cell-based, human; conditions: 20, 15 μM methadone, 24 h and 48 h
[5] = system: doxorubicin-resistant leukaemia cells CEM^DoxoR; experiment: Western blot analysis in CEM^DoxoR cells; format: cell-based, human; conditions: 20, 15 μM methadone, 24 h and 48 h
[6] = system: CD95-resistant leukaemia cells CEM^CD95R; experiment: Western blot analysis in CEM^CD95R cells; format: cell-based, human; conditions: 20, 15 μM methadone, 24 h and 48 h
leukaemia cells = experiment: Western blot analysis in leukaemia cells (caspase-8, Bax, CD95); format: cell-based, human
Description: Western blot analyses were done as described (Friesen et al. 2004, Friesen et al. 2003). Immunodetection of PARP, caspase-3, caspase-9, caspase-8, XIAP, CD95, CD95-L, Bax, Bcl-xL and β-actin was done using rabbit anti-PARP polyclonal antibody (1:5000, Roche), mouse-anti-caspase-3 monoclonal antibody (1:1000, Cell-Signalling), mouse-anti-caspase-8 monoclonal antibody (1:1000, Cell-Signalling), rabbit- anti-active-caspase-9 polyclonal antibody (1:1000, Cell-Signalling), mouse-anti-XIAP monoclonal antibody (1:1000, Transduction-Laboratories, Lexington, Ky.), mouse-anti-Fas (anti-CD95) monoclonal antibody (1:1000, Transduction-Laboratories), mouse-anti-Fas ligand (anti-CD95-ligand) monoclonal antibody (1:250, BD, Pharmingen), rabbit-anti-Bax polyclonal antibody (1:250, Oncogene, Cambridge), rabbit-anti-Bcl-XS/L. polyclonal antibody (1:1000, Santa-Cruz-Biotechnology, Santa-Cruz, Calif.), rabbit-anti-p21 polyclonal antibody (1:1000, Santa-Cruz), and mouse anti-β-actin monoclonal antibody (Sigma). Peroxidase-conjugated goat-anti-mouse IgG or peroxidase-conjugated goat-anti-rabbit IgG (1:5000, Santa-Cruz) as secondary antibody were used for the enhanced chemoluminescence system (ECL, Amersham-Pharmacia, Freiburg, Germany). Equal protein loading was controlled by β-actin detection.

[7] = system: human glioblastoma cell line A172; experiment: Induction of apoptosis in A172 glioblastoma cells, flow cytometry; format: cell-based
[8] = system: B-ALL (B-Cell lymphatic leukaemia) cells; experiment: Induction of apoptosis in B-ALL cells isolated from patients ex vivo; format: cell-based, human; conditions: B-ALL patient cells; 10 μM methadone; 72 h
[9] = system: Human acute myeloid leukaemia HL-60 cell line; experiment: Induction of apoptosis in HL-60 cell line (5000 cells/100 μl), long incubation, flow cytometry; format: cell-based
CEM cells = experiment: Inhibition of methadone induced apoptosis by zVAD.fmk in CEM cells; format: cell-based, human; conditions: 50 μM zVAD.fmk, preincubated 1 h before methadone
HL-60 cells = experiment: Inhibition of methadone induced apoptosis by zVAD.fmk in HL-60 cells; format: cell-based, human; conditions: 50 μM zVAD.fmk, preincubated 1 h before methadone
[10] = leukaemia cells after methadone treatment
[11] = 1 μg/mL methadone in addition of 0.1 μg/mL doxorubicin, 72 h

CCC(=O)C(CC(C)N(C)C)(c1ccccc1)c1ccccc1 (racemic) [methadone, D, L-methadone hydrochloride]
induction of apoptosis [1]: strong induction of apoptosis | induction of apoptosis [2]: strong induction of apoptosis | induction of apoptosis [3]: strong induction of apoptosis | induction of apoptosis [4]: strong induction of apoptosis | down regulation of Bcl-xL (HL-60 leukaemia cells): strong down regulation | down regulation of XIAP (HL-60 leukaemia cells): strong down regulation | down regulation of Bcl-xL (CEM leukaemia cells): strong down regulation | down regulation of XIAP (CEM leukaemia cells): strong down regulation | down regulation of Bcl-xL [5]: strong down regulation | down regulation of XIAP [5]: strong down regulation | down regulation of Bcl-xL [6]: strong down regulation | down regulation of XIAP [6]: strong down regulation | Activation of caspase-8 (leukaemia cells; [10]): not found | Up regulation of Bax (leukaemia cells; [10]): not found | up regulation of death-inducing ligands and death-inducing receptors such as CD95 (leukaemia cells; leukaemia cells after methadone treatment (data not shown)): not found | apoptotic effect of the combination with doxorubicin [7, 11]: strong apoptotic effect | synergy with doxorubicin [7, 11]: synergistic effects | dead cells (specific cell death) ([7]; 20 μg/mL methadone, 120 h): more than 20% | dead cells (specific cell death) ([7]; 20 μg/mL methadone, 168 h): more than 80% | dead cells (specific cell death) ([7]; 30 μg/mL methadone, 120 h): more than 85% | dead cells (specific cell death) ([7]; 30 μg/mL methadone, 168 h): ~100% | apoptosis, cells [8]: over 80%

CN1CC[C@]23c4c5ccc(O)c4O[C@H]2[C@@H](O)C=C[C@H]3[C@H]1C5 [morphine, Morphine]
apoptosis, cells ([9]; HL-60, first study, 40 μg/mL morphine, 144 h): 40% | apoptosis, cells ([9]; HL-60, second study, 1 μg/mL morphine, 168 h): more than 50% | apoptosis, cells ([9]; HL-60, third study, 1 μg/mL morphine in combination with 0.001 μg/mL doxorubicin, 168 h): 50%

CC(C)[C@H](NC(=O)OCc1ccccc1)C(=O)N[C@@H](C)C(=O)N[C@@H](CC(=O)O)C(=O)CF [zVAD.fmk, benzoyl carbonyl-Val-Ala-Asp-fluoromethyl ketone] (Cbz-Val-Ala-Asp-CH2F)
inhibition of methadone-induced apoptosis (CEM cells): almost completely inhibited | inhibition of methadone-induced apoptosis (HL-60 cells): almost completely inhibited
